Assay [1] concerns the target T1, human MDM4 protein (amino acids 2-185) (Homo sapiens, UniProt O15151).
T1 construct: human MDM4 protein (amino acids 2-185); made in house
T1 sequence (O15151 2-185): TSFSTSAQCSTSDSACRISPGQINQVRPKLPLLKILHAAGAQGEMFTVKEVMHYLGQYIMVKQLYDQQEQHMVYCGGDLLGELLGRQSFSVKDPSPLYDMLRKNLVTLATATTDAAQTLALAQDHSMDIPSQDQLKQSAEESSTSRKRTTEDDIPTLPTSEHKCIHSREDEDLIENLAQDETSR
Put plainly: p53-MDM4 TR-FRET assay (p53-MDM4 Assay 1). In kind it is binding. As to conditions: 2.5 nM MDM4-biotinylated, 10 nM Cy5-p53 peptide; read-out: IC50 (μM) of p53-Hdm4 inhibition (TR-FRET) Assay 1. The procedure, abridged:
(§1)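 Peptide displacement read as 665/620 nm TR-FRET ratio (excitation 340 nm) after 15 min room temperature with 10 nM Cy5-p53 aa18-26, following 15 min preincubation of Eu-streptavidin (0.625 nM) with biotinylated MDM4 aa 2-185 (2.5 nM) or MDM2 aa 2-188 (1.25 nM); IC50 curve-fitted. MDM2 Assay 2: MDM2 and Eu-streptavidin each 0.1 nM.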
(Time-resolved FRET reads energy transfer from a long-lived donor to a nearby acceptor.)

Assay [2] has as its target T2, human MDM2 protein (amino acids 2-188) (Homo sapiens, UniProt Q00987).
T2 construct: human MDM2 protein (amino acids 2-188); made in house
Briefly: p53-MDM2 TR-FRET assay (p53-MDM2 Assay 1). Type of assay: binding. The note with it: 1.25 nM MDM2-biotinylated, 10 nM Cy5-p53 peptide; read-out: IC50 (μM) of p53-Hdm2 inhibition (TR-FRET) Assay 1. Summed up:
as §1

A word on the IC50: it is the concentration needed to halve the response being measured.

T2 sequence (Q00987 2-188): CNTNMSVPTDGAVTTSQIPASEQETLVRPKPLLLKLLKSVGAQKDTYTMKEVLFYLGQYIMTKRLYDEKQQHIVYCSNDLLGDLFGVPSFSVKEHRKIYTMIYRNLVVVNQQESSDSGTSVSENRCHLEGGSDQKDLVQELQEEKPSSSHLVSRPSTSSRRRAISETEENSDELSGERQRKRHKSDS

Regarding `COc1cc2c(cc1OC(C)C)[C@H](c1ccc(Cl)cc1)N(c1ccc(C(C)(O)C3CCNCC3)cc1)C(=O)C2` (stereo partly drawn) [Example 43, (S)-1-(4-Chloro-phenyl)-2-[4-(1-hydroxy-1-piperidin-4-yl-ethyl)-phenyl]-7-isopropoxy-6-methoxy-1,4-dihydro-2H-isoquinolin-3-one], the results for the IC50 in assay [1] and in assay [2] were 4.99 µM and 0.0041 µM, respectively.

In the case of `COc1cc2c(cc1OC(C)C)[C@H](c1ccc(Cl)cc1)N(c1ccc(C(C)(O)C3CCC(F)(F)CC3)cc1)C(=O)C2` (stereo partly drawn) [Example 45, (S)-1-(4-Chloro-phenyl)-2-{4-[1-(4,4-difluoro-cyclohexyl)-1-hydroxy-ethyl]-phenyl}-7-isopropoxy-6-methoxy-1,4-dihydro-2H-isoquinolin-3-one], the IC50 is 17.4 µM in assay [1] and 0.0089 µM in assay [2].

On to `COc1cc2c(cc1OC(C)C)[C@H](c1ccc(Cl)cc1)N(c1ccc(C(C)(O)C3CCOC3)cc1)C(=O)C2` (stereo partly drawn) [Example 48, (S)-1-(4-Chloro-phenyl)-2-{4-[1-hydroxy-1-(tetrahydro-furan-3-yl)-ethyl]-phenyl}-7-isopropoxy-6-methoxy-1,4-dihydro-2H-isoquinolin-3-one], for which the 50% inhibitory concentration (IC50) was determined as 44.5 µM in assay [1] and 0.0432 µM in assay [2].

For the compound `COc1cc2c(cc1OC(C)C)[C@H](c1ccc(Cl)cc1)N(c1ccc(C(C)(O)C3CCNC(=O)C3)cc1)C(=O)C2` (stereo partly drawn) [Example 49, (S)-1-(4-Chloro-phenyl)-2-{4-[1-hydroxy-1-(2-oxo-piperidin-4-yl)-ethyl]-phenyl}-7-isopropoxy-6-methoxy-1,4-dihydro-2H-isoquinolin-3-one], the IC50 in assay [1] turned out to be 8.07 µM; in assay [2], 0.011 µM.

Take `COc1cc2c(cc1OC(C)C)[C@H](c1ccc(Cl)cc1)N(c1ccc(C3(O)CCCC3)cc1)C(=O)C2` [Example 50, (S)-1-(4-Chloro-phenyl)-2-[4-(1-hydroxy-cyclopentyl)-phenyl]-7-isopropoxy-6-methoxy-1,4-dihydro-2H-isoquinolin-3-one]: the figures for the IC50 in assay [1] and in assay [2] were 90.2 µM and 0.246 µM, respectively.

Turning to `COc1cc2c(cc1OC(C)C)[C@H](c1ccc(Cl)cc1)N(c1ccc(C3(O)CCC3)cc1)C(=O)C2` [Example 51, (S)-1-(4-Chloro-phenyl)-2-[4-(1-hydroxy-cyclobutyl)-phenyl]-7-isopropoxy-6-methoxy-1,4-dihydro-2H-isoquinolin-3-one], the figures for the IC50 in assay [1] and in assay [2] were 45.3 µM and 0.0731 µM, respectively.

In the case of `COc1cc2c(cc1OC(C)C)[C@H](c1ccc(Cl)cc1)N(c1ccc(C3(O)CN(C(=O)OC(C)(C)C)C3)cc1)C(=O)C2` [Example 55, 3-{4-[(S)-1-(4-Chloro-phenyl)-7-isopropoxy-6-methoxy-3-oxo-3,4-dihydro-1H-isoquinolin-2-yl]-phenyl}-3-hydroxy-azetidine-1-carboxylic acid tert-butyl ester], the figures for the half-maximal inhibitory concentration (IC50) in assay [1] and in assay [2] were 26.3 µM and 0.0926 µM, respectively.

For the compound `CNC(=O)N1CC(O)(c2ccc(N3C(=O)Cc4cc(OC)c(OC(C)C)cc4[C@@H]3c3ccc(Cl)cc3)cc2)C1` [Example 60, 3-{4-[(S)-1-(4-Chloro-phenyl)-7-isopropoxy-6-methoxy-3-oxo-3,4-dihydro-1H-isoquinolin-2-yl]-phenyl}-3-hydroxy-azetidine-1-carboxylic acid methylamide], the figures for the IC50 in assay [1] and in assay [2] were 88.4 µM and 0.186 µM, respectively.

Turning to `COc1cc2c(cc1OC(C)C)[C@H](c1ccc(Cl)cc1)N(c1ccc(C3(O)CN(S(C)(=O)=O)C3)cc1)C(=O)C2` [Example 62, (S)-1-(4-Chloro-phenyl)-2-[4-(3-hydroxy-1-methanesulfonyl-azetidin-3-yl)-phenyl]-7-isopropoxy-6-methoxy-1,4-dihydro-2H-isoquinolin-3-one], the IC50 in assay [1] stood at 77 µM; in assay [2] it was 0.342 µM.

In the case of `COc1cc2c(cc1OC(C)C)[C@H](c1ccc(Cl)cc1)N(c1ccc(C(C)(O)C3CCCCC3)cc1)C(=O)C2` (stereo partly drawn) [Example 63, (S)-1-(4-Chloro-phenyl)-2-[4-(1-cyclohexyl-1-hydroxy-ethyl)-phenyl]-7-isopropoxy-6-methoxy-1,4-dihydro-2H-isoquinolin-3-one], the IC50 was found to be 40.5 µM in assay [1] and 0.0154 µM in assay [2].

With `COc1cc2c(cc1OC(C)C)[C@H](c1ccc(Cl)cc1)N(c1ccc(C(C)(O)C3CN(C(=O)OC(C)(C)C)C3)cc1)C(=O)C2` (stereo partly drawn) [Example 64, 3-(1-{4-[(S)-1-(4-Chloro-phenyl)-7-isopropoxy-6-methoxy-3-oxo-3,4-dihydro-1H-isoquinolin-2-yl]-phenyl}-1-hydroxy-ethyl)-azetidine-1-carboxylic acid tert-butyl ester], the values for the IC50 in assay [1] and in assay [2] were 10.6 µM and 0.0072 µM, respectively.

Regarding `COc1cc2c(cc1OC(C)C)[C@H](c1ccc(Cl)cc1)N(c1ccc(C(C)(O)C3CNC3)cc1)C(=O)C2` (stereo partly drawn) [Example 65, (S)-2-[4-(1-Azetidin-3-yl-1-hydroxy-ethyl)-phenyl]-1-(4-chloro-phenyl)-7-isopropoxy-6-methoxy-1,4-dihydro-2H-isoquinolin-3-one], the IC50 in assay [1] was determined as 41.2 µM; in assay [2], 0.0423 µM.

As to `COc1cc2c(cc1OC(C)C)[C@H](c1ccc(Cl)cc1)N(c1ccc(C(C)(O)C3CN(C(C)=O)C3)cc1)C(=O)C2` (stereo partly drawn) [Example 66, (S)-2-{4-[1-(1-Acetyl-azetidin-3-yl)-1-hydroxy-ethyl]-phenyl}-1-(4-chloro-phenyl)-7-isopropoxy-6-methoxy-1,4-dihydro-2H-isoquinolin-3-one], the IC50 in assay [1] was found to be 13.5 µM; in assay [2] it was 0.0146 µM.

For `CNC(=O)N1CC(C(C)(O)c2ccc(N3C(=O)Cc4cc(OC)c(OC(C)C)cc4[C@@H]3c3ccc(Cl)cc3)cc2)C1` (stereo partly drawn) [Example 67, 3-(1-{4-[(S)-1-(4-Chloro-phenyl)-7-isopropoxy-6-methoxy-3-oxo-3,4-dihydro-1H-isoquinolin-2-yl]-phenyl}-1-hydroxy-ethyl)-azetidine-1-carboxylic acid methylamide], the IC50 in assay [1] is 16.7 µM; in assay [2], 0.0152 µM.

For the compound `COc1cc2c(cc1OC(C)C)[C@H](c1ccc(Cl)cc1)N(c1ccc(C(C)(O)C3CN(C(=O)N(C)C)C3)cc1)C(=O)C2` (stereo partly drawn) [Example 68, 3-(1-{4-[(S)-1-(4-Chloro-phenyl)-7-isopropoxy-6-methoxy-3-oxo-3,4-dihydro-1H-isoquinolin-2-yl]-phenyl}-1-hydroxy-ethyl)-azetidine-1-carboxylic acid dimethylamide], the IC50 in assay [1] was 15 µM; in assay [2], 0.0152 µM.

Regarding `COc1cc2c(cc1OC(C)C)[C@H](c1ccc(Cl)cc1)N(c1ccc(C(C)(O)C3CN(CCC(F)(F)F)C3)cc1)C(=O)C2` (stereo partly drawn) [Example 69, (S)-1-(4-Chloro-phenyl)-2-(4-{1-hydroxy-1-[1-(3,3,3-trifluoro-propyl)-azetidin-3-yl]-ethyl}-phenyl)-7-isopropoxy-6-methoxy-1,4-dihydro-2H-isoquinolin-3-one], the 50% inhibitory concentration (IC50) amounted to 40.5 µM in assay [1] and 0.0363 µM in assay [2].

As to `COc1cc2c(cc1OC(C)C)[C@H](c1ccc(Cl)cc1)N(c1ccc(C(C)(O)C3CN(C)C3)cc1)C(=O)C2` (stereo partly drawn) [Example 70, (S)-1-(4-Chloro-phenyl)-2-{4-[1-hydroxy-1-(1-methyl-azetidin-3-yl)-ethyl]-phenyl}-7-isopropoxy-6-methoxy-1,4-dihydro-2H-isoquinolin-3-one], the IC50 in assay [1] worked out at 60.1 µM; in assay [2], 0.0547 µM.

Consider `CCN1CC(C(C)(O)c2ccc(N3C(=O)Cc4cc(OC)c(OC(C)C)cc4[C@@H]3c3ccc(Cl)cc3)cc2)C1` (stereo partly drawn) [Example 71, (S)-1-(4-Chloro-phenyl)-2-{4-[1-(1-ethyl-azetidin-3-yl)-1-hydroxy-ethyl]-phenyl}-7-isopropoxy-6-methoxy-1,4-dihydro-2H-isoquinolin-3-one], for which the IC50 in assay [1] was 30.1 µM; in assay [2], 0.026 µM.

In the case of `COc1cc2c(cc1OC(C)C)[C@H](c1ccc(Cl)cc1)N(c1ccc(C(C)(O)C3CN(C(C)C)C3)cc1)C(=O)C2` (stereo partly drawn) [Example 72, (S)-1-(4-Chloro-phenyl)-2-{4-[1-hydroxy-1-(1-isopropyl-azetidin-3-yl)-ethyl]-phenyl}-7-isopropoxy-6-methoxy-1,4-dihydro-2H-isoquinolin-3-one], the values for the IC50 in assay [1] and in assay [2] were 18.4 µM and 0.0234 µM, respectively.

For the compound `COc1cc2c(cc1OC(C)C)[C@H](c1ccc(Cl)cc1)N(c1ccc(C(C)(O)C3CN(S(C)(=O)=O)C3)cc1)C(=O)C2` (stereo partly drawn) [Example 73, (S)-1-(4-Chloro-phenyl)-2-{4-[1-hydroxy-1-(1-methanesulfonyl-azetidin-3-yl)-ethyl]-phenyl}-7-isopropoxy-6-methoxy-1,4-dihydro-2H-isoquinolin-3-one], the IC50 in assay [1] was found to be 18.9 µM; in assay [2] it was 0.0179 µM.

On to `COc1cc2c(cc1OC(C)C)[C@H](c1ccc(Cl)cc1)N(c1ccc(C(C)(O)C3CN(CC(F)(F)F)C3)cc1)C(=O)C2` (stereo partly drawn) [Example 74, (S)-1-(4-Chloro-phenyl)-2-(4-{1-hydroxy-1-[1-(2,2,2-trifluoro-ethyl)-azetidin-3-yl]-ethyl}-phenyl)-7-isopropoxy-6-methoxy-1,4-dihydro-2H-isoquinolin-3-one], for which the IC50 amounted to 18 µM in assay [1] and 0.0179 µM in assay [2].

The values are drawn from patent publication US8859535B2, “Hydroxy substituted isoquinolinone derivatives” (Novartis AG, priority 2011, dated 2014).
